# PMC10059066, “Probing Serum Albumins and Cyclodextrins as Binders of the Mycotoxin Metabolites Alternariol-3-Glucoside, Alternariol-9-Monomethylether-3-Glucoside, and Zearalenone-14-Glucuronide” (Metabolites, 2023)
# “And” between values parts separate entries of the source, which are not always exact repeats. Equal entries are not always repeated. Where two headings read alike, the source gives them in different places.
# Legend:
# rat serum albumin (RSA) [1] = biological target: T1, rat serum albumin (RSA) (Rattus norvegicus, UniProt P02770); test: Ultracentrifugation study of Z14Glr-RSA binding; details: PBS pH 7.4, read-out: logK of the Z14Glr–RSA complex (converted)
# T1 construct: purchased Merck (Darmstadt, Germany)
# T1 sequence (P02770 25-608): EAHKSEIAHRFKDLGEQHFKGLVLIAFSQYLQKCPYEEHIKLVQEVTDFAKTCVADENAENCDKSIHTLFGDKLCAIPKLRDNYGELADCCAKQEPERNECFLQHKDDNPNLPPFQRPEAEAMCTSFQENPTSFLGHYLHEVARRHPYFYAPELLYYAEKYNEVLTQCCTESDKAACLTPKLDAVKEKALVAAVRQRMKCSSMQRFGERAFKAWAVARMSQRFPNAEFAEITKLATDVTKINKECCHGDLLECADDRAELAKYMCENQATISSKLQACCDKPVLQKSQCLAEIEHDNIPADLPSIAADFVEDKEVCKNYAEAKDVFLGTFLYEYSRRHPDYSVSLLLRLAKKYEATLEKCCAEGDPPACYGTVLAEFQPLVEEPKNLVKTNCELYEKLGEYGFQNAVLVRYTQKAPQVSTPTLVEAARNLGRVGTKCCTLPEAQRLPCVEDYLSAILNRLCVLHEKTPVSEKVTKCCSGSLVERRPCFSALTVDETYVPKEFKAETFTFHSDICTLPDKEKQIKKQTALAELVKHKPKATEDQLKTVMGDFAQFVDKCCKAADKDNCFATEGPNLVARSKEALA
# [2] = biological target: T2, human serum albumin (HSA) (Homo sapiens, UniProt P02768); test: Ultracentrifugation study of mycotoxin-HSA binding
# T2 construct: purchased Merck (Darmstadt, Germany)
# T2 sequence (P02768 25-609): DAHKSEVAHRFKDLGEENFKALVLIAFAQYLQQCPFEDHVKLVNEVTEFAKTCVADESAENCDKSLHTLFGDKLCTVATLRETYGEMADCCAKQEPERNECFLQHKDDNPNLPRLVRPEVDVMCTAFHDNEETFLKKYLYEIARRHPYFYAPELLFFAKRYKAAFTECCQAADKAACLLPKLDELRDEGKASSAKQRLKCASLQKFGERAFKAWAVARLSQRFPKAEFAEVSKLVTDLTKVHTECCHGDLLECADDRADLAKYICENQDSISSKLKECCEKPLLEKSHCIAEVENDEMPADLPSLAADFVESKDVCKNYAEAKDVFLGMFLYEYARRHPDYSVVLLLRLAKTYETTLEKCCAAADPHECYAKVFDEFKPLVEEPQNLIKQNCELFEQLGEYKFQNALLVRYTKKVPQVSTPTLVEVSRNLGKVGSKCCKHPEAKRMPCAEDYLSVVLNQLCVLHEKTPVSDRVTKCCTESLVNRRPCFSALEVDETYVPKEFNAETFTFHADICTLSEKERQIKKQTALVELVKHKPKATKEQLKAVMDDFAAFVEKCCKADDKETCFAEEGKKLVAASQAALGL
# Description: To confirm the data calculated based on fluorescence quenching studies, ultracentrifugation experiments were also performed. With the proper conditions of ultracentrifugation, albumin (with the bound ligands) can be sedimented. The samples (final volume: 500 μL) contained AG, AMG, or Z14Glr (5 μM each) with HSA (60 or 180 μM) dissolved in PBS. Centrifugation (16 h, 170,000× g, 20 °C) was performed using 11 × 34 mm PC tubes (Beckman Coulter, Brea, CA, US) and a Beckman Coulter Optima MAX-XP tabletop ultracentrifuge (fixed-angle rotor). The unbound fractions of mycotoxins were determined in the protein-free supernatant by HPLC-FLD (see details in Section 2.5), as previously reported. (3) K=[LA]/L×[A] where [L], [A], and [LA] are the concentrations (mol/L) of the ligand (unbound), albumin (unbound), and the ligand–albumin complex, respectively.
# Furthermore, to test the impact of environmental pH on the stability of mycotoxin–albumin complexes, the abovementioned experiments were also performed in 0.05 M sodium acetate (pH 5.0) and 0.05 M sodium borate (pH 8.5) buffers.
# To confirm the binding constants determined in the quenching experiments, and to get insight into the interaction of Z14Glr with HSA, ultracentrifugation studies were also performed. In these investigations, albumins (with the ligands bound) were sedimented, and then the concentrations of the unbound mycotoxins were quantified from the supernatants.
# [3] = biological target: T3, porcine serum albumin (PSA) (Sus scrofa, UniProt P08835); test: Fluorescence quenching of porcine serum albumin by mycotoxins; format: binding; details: mycotoxin 0–5 μM, albumin 2 μM, PBS pH 7.4
# T3 construct: purchased Merck (Darmstadt, Germany)
# T3 sequence (P08835 25-607): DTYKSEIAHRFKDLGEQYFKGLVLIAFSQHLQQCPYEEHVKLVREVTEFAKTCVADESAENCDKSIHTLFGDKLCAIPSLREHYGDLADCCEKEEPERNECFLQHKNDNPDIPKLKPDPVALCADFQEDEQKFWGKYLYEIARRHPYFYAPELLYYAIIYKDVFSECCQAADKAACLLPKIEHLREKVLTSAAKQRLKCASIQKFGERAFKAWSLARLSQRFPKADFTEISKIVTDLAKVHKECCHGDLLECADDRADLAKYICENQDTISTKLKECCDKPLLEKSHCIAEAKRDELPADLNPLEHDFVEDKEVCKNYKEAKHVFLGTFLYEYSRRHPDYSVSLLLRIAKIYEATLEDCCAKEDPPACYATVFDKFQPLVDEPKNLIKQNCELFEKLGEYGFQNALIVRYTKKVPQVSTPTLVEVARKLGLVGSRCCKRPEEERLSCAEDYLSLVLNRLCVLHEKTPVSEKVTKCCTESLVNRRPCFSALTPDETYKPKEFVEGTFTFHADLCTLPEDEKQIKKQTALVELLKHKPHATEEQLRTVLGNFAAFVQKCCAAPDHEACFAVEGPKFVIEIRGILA
# Description: (§1) Fluorescence emission spectra were collected at 25 °C using a Hitachi F-4500 fluorescence spectrophotometer (Tokyo, Japan). The quenching effects of AG, AMG, and Z14Glr (each 0–5 μM) on the emission signals of albumins (2 μM each) were examined at 340 nm in phosphate-buffered saline (PBS, pH 7.4). UV–vis measurements were performed at 25 °C in PBS, employing a Jasco V730 UV–vis spectrophotometer (Tokyo, Japan). Thereafter, we corrected the inner-filter effects of the mycotoxins, as previously reported. Stern–Volmer quenching constants (KSV; L/mol) were calculated with the graphical application of the Stern–Volmer equation [11, 29]:(1) I0/I=1+KSV×Q where I0 and I are the emission intensities of the protein without and with the quencher, respectively, while [Q] is the concentration (mol/L) of the quencher (mycotoxin). The binding constants (K; L/mol) of mycotoxin–albumin complexes were determined with nonlinear fitting, using the HyperQuad2006 software (version 3.1; Protonic Software GmbH, Hanau, Germany), as described previously.
# (§2) The interaction of a ligand molecule with albumin usually induces a decrease in the emission signal of the protein [33]; therefore, fluorescence quenching studies were performed. In PBS (pH 7.4), increasing amounts of AG, AMG, and Z14Glr were added to standard concentrations of human (HSA), bovine (BSA), porcine (PSA), or rat (RSA) serum albumins, after which the emission spectra were recorded.
# (§3) The KSV and K values of mycotoxin–albumin complexes were determined using the Stern–Volmer equation (Equation (1)) and the HyperQuad2006 software (see data in Table 1 and Table 2, respectively). […] The logKSV and logK values of the mycotoxin–albumin complexes were in good agreement (Table 1 and Table 2).
# [4] = biological target: T4, bovine serum albumin (BSA) (Bos taurus, UniProt P02769); test: Fluorescence quenching of bovine serum albumin by mycotoxins; format: binding; details: mycotoxin 0–5 μM, albumin 2 μM, PBS pH 7.4
# T4 construct: purchased Merck (Darmstadt, Germany)
# T4 sequence (P02769 25-607): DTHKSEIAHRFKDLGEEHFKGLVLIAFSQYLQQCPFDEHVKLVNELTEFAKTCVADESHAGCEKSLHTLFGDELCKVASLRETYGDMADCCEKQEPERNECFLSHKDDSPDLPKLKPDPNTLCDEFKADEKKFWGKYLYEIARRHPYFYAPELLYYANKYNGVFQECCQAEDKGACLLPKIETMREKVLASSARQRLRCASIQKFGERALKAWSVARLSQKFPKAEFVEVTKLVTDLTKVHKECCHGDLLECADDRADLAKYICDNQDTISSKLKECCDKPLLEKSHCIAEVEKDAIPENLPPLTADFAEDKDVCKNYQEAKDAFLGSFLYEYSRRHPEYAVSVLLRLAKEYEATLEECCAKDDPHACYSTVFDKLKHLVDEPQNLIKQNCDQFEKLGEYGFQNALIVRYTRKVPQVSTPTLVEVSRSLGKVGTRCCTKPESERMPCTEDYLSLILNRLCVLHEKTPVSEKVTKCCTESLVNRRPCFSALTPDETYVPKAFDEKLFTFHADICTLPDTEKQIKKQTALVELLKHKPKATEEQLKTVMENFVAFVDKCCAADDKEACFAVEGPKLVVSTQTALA
# Description: as §1, §2, §3
# [5] = Extraction of mycotoxins from aqueous solutions with β-cyclodextrin bead polymer; details: for decrease in mycotoxin concentration (extraction) by BBP: BBP 10 mg/mL, mycotoxin 5 μM, sodium acetate buffer pH 5.0, 40 min, 25 °C
# Description: (§4) The extraction of mycotoxins by insoluble (but water-swellable) CD bead polymers was tested in 0.05 M sodium acetate (pH 5.0) and 0.05 M sodium borate (pH 10.0) buffers. AG, AMG, alternariol, Z14Glr, and zearalenone solutions (5 μM each) were incubated with increasing amounts (0–10 mg/mL) of BBP or GBP in a thermomixer for 40 min at 1000 rpm and 25 °C. After pulse centrifugation (5000× g, 3 s), the mycotoxin contents of the supernatants were analyzed by HPLC-FLD (see Section 2.5).
# (§5) The quantitative analyses of the examined mycotoxins were performed with a Jasco HPLC system (Tokyo, Japan) equipped with a binary pump (PU-4180), an autosampler (AS 4050), and a fluorescence detector (FP-920). Chromatograms were evaluated using the ChromNAV2 software (Jasco). Alternariol and zearalenone were analyzed as described previously. During the validation of our new HPLC-FLD methods, the linearity (LIN), limit of detection (LOD), limit of quantification (LOQ), and intraday repeatability (IDR) were determined as described previously.
# (§6) AG and AMG were quantified using the following method: Isocratic elution of the samples (20 μL) was performed at room temperature with a 1 mL/min flow rate, employing phosphoric acid (1 mM) and acetonitrile (65:35 v/v%) as the mobile phase, where a Security Guard (C18, 4.0 × 3.0 mm; Phenomenex, Torrance, CA, US) precolumn was linked to a Kinetex EVO C18 (250 × 4.6 mm, 5 μm; Phenomenex) analytical column. Chromatograms were recorded, applying 335 nm and 455 nm excitation and emission wavelengths, respectively. The method validation parameters were as follows: AG (LIN: 0.2–5.0 μM, R^2 = 0.999; LOD = 0.05 μM; LOQ = 0.18 μM; IDR = 1.3%, n = 7); AMG (LIN: 0.2–5.0 μM, R^2 = 0.997; LOD = 0.15 μM; LOQ = 0.50 μM; IDR = 2.3%, n = 7).
# (§7) Z14Glr was quantified using the following method: Isocratic elution of the samples (20 μL) was performed at room temperature with a 1 mL/min flow rate, employing 1% acetic acid solution and acetonitrile (65:35 v/v%) as the mobile phase, where a Security Guard (C8, 4.0 × 3.0 mm; Phenomenex) precolumn was linked to a Mediterranea See8 (C8, 150 × 4.6 mm, 5 μm; Teknokroma, Barcelona, Spain) analytical column. Chromatograms were recorded, applying 315 nm and 465 nm excitation and emission wavelengths, respectively. The method validation parameters for the HPLC analysis of Z14Glr were also determined (LIN: 0.2–5.0 μM, R^2 = 0.999; LOD = 0.15 μM; LOQ = 0.50 μM; IDR = 2.0%, n = 7).
# [6] = Fluorescence spectroscopic study of mycotoxin-SGD complex formation; format: binding; details: SGD 0–5 mM, mycotoxin 1 μM, sodium acetate pH 5.0
# Description: (§8) The impacts of SBECD (0–10 mM) and SGD (0–5 mM) on the emission signals of mycotoxins (1 μM each) were tested in sodium acetate buffer (0.05 M, pH 5.0). Mycotoxin–CD interactions were evaluated using the Benesi–Hildebrand equation [11, 31], assuming 1:1 stoichiometry of complex formation:(2) F0/F−F0=1/A+1/A×K×[CD] where K (L/mol) is the binding constant, F0 is the emission signal of the mycotoxin without the host molecules, F is the emission signal of the mycotoxin with CDs, A is a constant, and [CD] is the molar concentration (mol/L) of the host molecules.
# (§9) Therefore, CD-induced elevation in the fluorescence emission intensities of mycotoxins was examined.
# (§10) Based on the emission signals at 455 nm, the binding constants of ligand–CD complexes were calculated using the Benesi–Hildebrand equation (Equation (2)). Background corrections were performed in each experiment. […] Glucose and glucuronic acid are bulky, hydrophilic molecules; therefore, it is reasonable to hypothesize that these substituents make the inclusion of AG, AMG, and Z14Glr by the apolar CD cavity difficult.
# [7] = biological target: T2, human serum albumin (HSA); test: Fluorescence quenching of human serum albumin by mycotoxins; format: binding; details: mycotoxin 0–5 μM, albumin 2 μM, PBS pH 7.4
# Description: as §1, §2, §3
# [8] = Extraction of mycotoxins from aqueous solutions with γ-cyclodextrin bead polymer; details: GBP 0–10 mg/mL, mycotoxin 5 μM, sodium acetate buffer pH 5.0
# Description: as §4, §5
# as §6, with “The method validation parameters were as follows: AG (LIN: 0.2–5.0 μM, R^2 = 0.999; LOD = 0.05 μM; LOQ = 0.18 μM; IDR = 1.3%, n = 7); AMG (LIN: 0.2–5.0 μM, R^2 = 0.997; LOD = 0.15 μM; LOQ = 0.50 μM; IDR = 2.3%, n = 7).” left out
# as §7, with “The method validation parameters for the HPLC analysis of Z14Glr were also determined (LIN: 0.2–5.0 μM, R^2 = 0.999; LOD = 0.15 μM; LOQ = 0.50 μM; IDR = 2.0%, n = 7).” left out
# [9] = Fluorescence spectroscopic study of mycotoxin-SBECD complex formation; format: binding
# Description: as §8, §9, §10
# rat serum albumin (RSA) [10] = biological target: T1, rat serum albumin (RSA); test: Fluorescence quenching of rat serum albumin by mycotoxins; format: binding
# Description: as §1, §2, §3
# albumins = system: albumins; design: method as in PMID 31083629; details: alternariol, RSA vs HSA; cited from earlier work
SMILES,Kd (rat serum albumin (RSA) [1]),"Kd ([2]; 0.05 M sodium acetate pH 5.0, mycotoxin 5 μM, n = 3, read-out: HSA pH 5.0 logK ± SEM (binding constant) (converted))","Kd ([2]; 0.05 M sodium borate pH 8.5, mycotoxin 5 μM, n = 3, read-out: HSA pH 8.5 logK ± SEM (binding constant) (converted))","Kd ([2]; PBS pH 7.4, mycotoxin 5 μM, n = 3, read-out: HSA pH 7.4 logK ± SEM (binding constant) (converted))",effect on fluorescence emission spectrum of PSA [3],effect on fluorescence emission spectrum of BSA [4],decrease in mycotoxin concentration (extraction) by BBP [5],"removal of mycotoxin by BBP at pH 10.0 compared with pH 5.0 ([5]; sodium borate pH 10.0 vs sodium acetate pH 5.0, mycotoxin 5 μM)",SGD-induced increase in the emission signal of the mycotoxin [6],effect on fluorescence emission spectrum of HSA [7],removal of mycotoxin by GBP [8],"SBECD logK ± SEM (binding constant) ([9]; Benesi–Hildebrand, 0.05 M sodium acetate pH 5.0, mycotoxin 1 μM, n = 3)","SBECD-induced increase in the emission signal of the mycotoxin ([9]; SBECD 0–10 mM, mycotoxin 1 μM, sodium acetate pH 5.0)","RSA logKSV ± SEM (Stern–Volmer quenching constant) (rat serum albumin (RSA) [10]; PBS pH 7.4, 25 °C, albumin 2 μM, mycotoxin 0–5 μM, n = 3)","Kd (rat serum albumin (RSA) [10]; fluorescence quenching, HyperQuad fitting, PBS pH 7.4, n = 3, read-out: RSA logK ± SEM (binding constant) (converted))","binding constant K of Z14Glr-RSA complex (rat serum albumin (RSA) [10]; fluorescence quenching, PBS pH 7.4)","effect on fluorescence emission intensity of RSA (rat serum albumin (RSA) [10]; mycotoxin 0–5 μM, albumin 2 μM, PBS pH 7.4)",affinity of RSA compared to HSA (albumins)
"C[C@H]1CCCC(=O)CCC/C=C/c2cc(O[C@@H]3OC(C(=O)O)[C@@H](O)C(O)C3O)cc(O)c2C(=O)O1 (stereo partly drawn) [Z14Glr, zearalenone-14-β,D-glucuronide]",13.5 µM,25.7 µM,58.9 µM,63.1 µM and 60.3 µM,barely affected,barely affected,45%,significantly lower than at acidic pH,fivefold,barely affected,only moderate removal,2.32 ± 0.12 L/mol,ninefold,4.65 ± 0.05 L/mol,19.5 µM,≈ 5 × 10^4 L/mol,considerably decreased,–
Cc1cc(O)cc2oc(=O)c3c(O)cc(O)cc3c12 [alternariol],–,–,–,–,–,–,–,–,–,–,–,–,–,–,–,–,–,almost eightfold higher affinity
C[C@H]1CCCC(=O)CCC/C=C/c2cc(O)cc(O)c2C(=O)O1 [zearalenone],–,–,–,–,–,–,more than 95%,–,–,–,–,–,–,–,–,–,–,–
